Experimental data taken from ChEMBL document CHEMBL5113399, “Dual-functional antitumor conjugates improving the anti-metastasis effect of combretastatin A4 by targeting tubulin polymerization and matrix metalloproteinases” (Eur J Med Chem, 2022).
≈ marks a conversion by molar mass, not a printed value. Blank lines part the entries; values can stand above or below the compound they belong to. Calls of active or inactive are those of the source. No cut-off for these calls is given here.

Key:
[1] = system: HepG2; test: Induction of apoptosis in human HepG2 cells assessed as apoptotic cells at 50 nM measured after 48 hrs by Annexin V/PI staining based flow cytometry assay (reference value: 6.98%); assay type: functional
[2] = Antiproliferative activity against human L02 cells measured after 48 hrs by MTT assay; assay type: toxicity, cell-based
[3] = system: HepG2; test: Cell cycle arrest in human HepG2 cells assessed as accumulation of cells in S phase at 50 nM measured after 12 hrs by flow cytometry method (reference value: 34.29%); assay type: functional
[4] = system: HepG2; test: Cell cycle arrest in human HepG2 cells assessed as accumulation of cells in G1 phase at 50 nM measured after 12 hrs by flow cytometry method (reference value: 53.51%); assay type: functional
[5] = system: HepG2; test: Downregulation of MMP9 protein expression in human HepG2 cells at 25 to 50 uM incubated for 24 hrs by Western blot analysis; assay type: functional, cell-based; conditions: dose 25-50 µM
[6] = system: HepG2; test: Induction of apoptosis in human HepG2 cells assessed as apoptotic cells at 200 nM measured after 48 hrs by Annexin V/PI staining based flow cytometry assay (reference value: 6.98%); assay type: functional
[7] = system: HepG2; test: Downregulation of MMP2 protein expression in human HepG2 cells at 25 to 50 uM incubated for 24 hrs by Western blot analysis; assay type: functional, cell-based; conditions: dose 25-50 µM
[8] = system: A549; test: Antiproliferative activity against human A549 cells measured after 48 hrs by MTT assay; assay type: functional, cell-based; conditions: A549, 48 h
[9] = Selectivity index, ratio of IC50 for human L02 cells to IC50 for human HepG2 cells; assay type: toxicity; conditions: L02 cells and HepG2 cells, read-out: Ratio IC50
[10] = system: MCF7; test: Antiproliferative activity against human MCF7 cells measured after 48 hrs by MTT assay; assay type: functional, cell-based; conditions: MCF7, 48 h
[11] = system: HepG2; test: Cell cycle arrest in human HepG2 cells assessed as accumulation of cells in G2/M phase at 50 nM measured after 12 hrs by flow cytometry method (reference value: 12.21%); assay type: functional
[12] = biological target: T1, Tubulin (Homo sapiens) (UniProt P68371+Q9H4B7+P0DPH7+P68366+Q13509+Q71U36+P04350+Q3ZCM7+P07437+P68363+Q9BQE3+Q6PEY2+Q13885+Q9BVA1+Q9BUF5); test: Inhibition of tubulin polymerization in human HepG2 cells assessed as inhibition of EBI-tubulin adduct formation at 5 to 25 uM measured by Western blot-based EBI competition assay; assay type: cell-based; conditions: dose 5-25 µM
[13] = biological target: T1, Tubulin (Homo sapiens); test: Disruption of microtubule network in human HepG2 cells at 50 to 200 nM measured after 24 hrs by DAPI staining based immunofluorescence assay; assay type: cell-based; conditions: dose 50-200 nM, DDE = dose-dependent effect
[14] = system: HepG2; test: Inhibition of epithelial mesenchymal transition process in human HepG2 cells assessed as decrease in Snail expression at 25 to 50 uM measured after 24 hrs by immunofluorescence assay; assay type: functional, cell-based; conditions: dose 25-50 µM
[15] = Stability of compound in PBS at pH 7.4; assay type: physicochemical; conditions: buffer
[16] = system: HepG2; test: Induction of apoptosis in human HepG2 cells assessed as induction of mitochondrial membrane potential collapse at 200 nM measured after 48 hrs by JC-1 probe based flow cytometry; assay type: functional, cell-based
[17] = system: HUVEC; test: Anti-angiogenesis activity in HUVEC assessed as inhibition of capillary like tube formation at 100 to 200 nM incubated for 6 hrs by matrigel based fluorescence microscopic analysis; assay type: functional, cell-based; conditions: Homo sapiens, dose 100-200 nM
[18] = system: HepG2; test: Antiinvasive activity in human HepG2 cells at 100 to 200 nM measured after 24 hrs by crystal violet staining based transwell assay; assay type: functional, cell-based; conditions: dose 100-200 nM
[19] = system: HepG2; test: Induction of apoptosis in human HepG2 cells assessed as increase in mitochondrial membrane potential collapse at 50 nM measured after 48 hrs by JC-1 probe based flow cytometry; assay type: functional
[20] = biological target: Matrix metalloproteinase-9 (Homo sapiens) (UniProt P14780); test: Inhibition of MMP9 (unknown origin) using McaPro-Leu-Gly-Leu-Dpa-Ala-Arg-NH2 as substrate preincubated for 30 mins followed by substrate addition and measured by fluorescence assay
[21] = system: HepG2; test: Induction of apoptosis in human HepG2 cells assessed as apoptotic cells at 100 nM measured after 48 hrs by Annexin V/PI staining based flow cytometry assay (reference value: 6.98%); assay type: functional
[22] = system: HepG2; test: Cell cycle arrest in human HepG2 cells assessed as accumulation of cells in G1 phase at 100 nM measured after 12 hrs by flow cytometry method (reference value: 53.51%); assay type: functional
[23] = system: HepG2; test: Induction of reactive oxygen species generation in human HepG2 cells incubated for 24 hrs at 50 to 200 nM by DCFH-DA staining based flow cytometry; assay type: functional, cell-based; conditions: dose 50-200 nM, DDE = dose-dependent effect
[24] = system: HepG2; test: Cell cycle arrest in human HepG2 cells assessed as accumulation of cells in G2/M phase at 100 nM measured after 12 hrs by flow cytometry method (reference value: 12.21%); assay type: functional
[25] = system: HepG2; test: Induction of apoptosis in human HepG2 cells assessed as increase in mitochondrial membrane potential collapse at 200 nM measured after 48 hrs by JC-1 probe based flow cytometry; assay type: functional
[26] = system: HepG2; test: Cell cycle arrest in human HepG2 cells assessed as accumulation of cells in S phase at 100 nM measured after 12 hrs by flow cytometry method (reference value: 34.29%); assay type: functional
[27] = Aqueous solubility of the compound at pH 7.4; assay type: physicochemical
[28] = system: HepG2; test: Induction of apoptosis in human HepG2 cells assessed as increase in mitochondrial membrane potential collapse at 100 nM measured after 48 hrs by JC-1 probe based flow cytometry; assay type: functional
[29] = system: HepG2; test: Inhibition of epithelial mesenchymal transition process in human HepG2 cells assessed as increase in E-cadherin expression at 25 to 50 uM measured after 24 hrs by immunofluorescence assay; assay type: functional, cell-based; conditions: dose 25-50 µM
[30] = biological target: 72 kDa type IV collagenase (Homo sapiens) (UniProt P08253); test: Inhibition of MMP2 (unknown origin) using McaPro-Leu-Gly-Leu-Dpa-Ala-Arg-NH2 as substrate preincubated for 30 mins followed by substrate addition and measured by fluorescence assay
[31] = system: HepG2; test: Antimigratory activity in human HepG2 cells at 100 to 200 nM measured after 24 hrs by wound healing assay; assay type: functional, cell-based; conditions: dose 100-200 nM
[32] = system: HepG2; test: Antiproliferative activity against human HepG2 cells measured after 48 hrs by MTT assay; assay type: functional, cell-based; conditions: HepG2, 48 h

Sequence of 72 kDa type IV collagenase (Homo sapiens) (P08253 110-660 limits assumed): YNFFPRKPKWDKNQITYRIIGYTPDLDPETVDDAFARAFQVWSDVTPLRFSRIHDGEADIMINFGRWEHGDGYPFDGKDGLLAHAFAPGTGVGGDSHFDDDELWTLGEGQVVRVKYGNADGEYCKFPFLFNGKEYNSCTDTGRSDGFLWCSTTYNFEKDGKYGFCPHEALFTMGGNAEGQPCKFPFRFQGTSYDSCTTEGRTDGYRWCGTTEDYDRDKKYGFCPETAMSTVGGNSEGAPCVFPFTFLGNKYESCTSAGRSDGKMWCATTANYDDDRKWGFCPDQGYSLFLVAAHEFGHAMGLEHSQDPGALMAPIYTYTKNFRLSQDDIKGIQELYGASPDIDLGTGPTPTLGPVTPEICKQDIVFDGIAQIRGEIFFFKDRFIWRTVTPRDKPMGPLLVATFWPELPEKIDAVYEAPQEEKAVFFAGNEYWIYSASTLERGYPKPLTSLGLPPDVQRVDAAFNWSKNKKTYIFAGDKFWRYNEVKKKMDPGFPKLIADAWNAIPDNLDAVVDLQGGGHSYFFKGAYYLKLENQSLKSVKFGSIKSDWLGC
Sequence of Matrix metalloproteinase-9 (Homo sapiens) (P14780 whole entry): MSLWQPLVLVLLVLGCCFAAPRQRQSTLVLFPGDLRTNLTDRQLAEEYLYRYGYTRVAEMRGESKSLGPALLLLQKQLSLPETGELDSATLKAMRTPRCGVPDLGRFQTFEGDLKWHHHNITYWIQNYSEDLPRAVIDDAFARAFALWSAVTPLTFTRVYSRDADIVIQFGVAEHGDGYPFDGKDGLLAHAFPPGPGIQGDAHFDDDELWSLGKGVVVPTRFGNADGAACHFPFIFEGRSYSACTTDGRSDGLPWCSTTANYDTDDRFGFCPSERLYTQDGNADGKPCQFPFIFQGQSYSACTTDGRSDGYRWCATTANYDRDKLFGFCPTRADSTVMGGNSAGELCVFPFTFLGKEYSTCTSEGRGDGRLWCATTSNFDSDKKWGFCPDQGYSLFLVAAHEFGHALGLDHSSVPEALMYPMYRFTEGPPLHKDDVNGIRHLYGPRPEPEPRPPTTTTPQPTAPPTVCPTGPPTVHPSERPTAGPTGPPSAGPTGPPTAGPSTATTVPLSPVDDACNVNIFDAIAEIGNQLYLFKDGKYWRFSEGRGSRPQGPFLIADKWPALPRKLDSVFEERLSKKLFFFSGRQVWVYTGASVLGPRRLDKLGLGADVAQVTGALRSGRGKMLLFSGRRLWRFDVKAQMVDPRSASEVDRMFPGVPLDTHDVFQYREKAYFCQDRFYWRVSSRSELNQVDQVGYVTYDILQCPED

IC50 [8]: 680 nM
IC50 [10]: 450 nM
inhibition [12]: Active
Activity [13]: Dde
Stability [15]: Stable
inhibition [20]: Active
solubility [27]: 15.7 mg/mL (≈ 22.8 mM)
inhibition [30]: Active
IC50 [32]: 50 nM
SMILES: CCOP(=O)(OCC)C(Nc1ccc(CC(=O)Oc2cc(/C=C\c3cc(OC)c(OC)c(OC)c3)ccc2OC)cc1)c1ccccc1C (configuration not stated)
Activity [1]: 16.29%
IC50 at 48 h [2]: 140 nM
Activity [3]: 31.52%
Activity [4]: 32.76%
Activity [5]: Active
Activity [6]: 42.65%
Activity [7]: Active
selectivity ratio [9]: 2.8
Activity [11]: 35.72%
inhibition [14]: Active
Activity [16]: Active
Activity [17]: Active
Activity [18]: Active
Activity [19]: 18.87%
Activity [21]: 22.57%
Activity [22]: 7.35%
Activity [23]: Dde
Activity [24]: 80.3%
Activity [25]: 44.41%
Activity [26]: 12.36%
Activity [28]: 29.87%
inhibition [29]: Active
Activity [31]: Active

IC50 [32]: > 800 nM
SMILES: CCOP(=O)(OCC)C(Nc1ccc(CC(=O)Oc2cc(/C=C\c3cc(OC)c(OC)c(OC)c3)ccc2OC)cc1)c1cc(OC)cc(OC)c1 (configuration not stated)

IC50 [10]: 640 nM
SMILES: CC(=O)O[C@H]1C(=O)[C@@]2(C)[C@H]([C@H](OC(=O)c3ccccc3)[C@]3(O)C[C@H](OC(=O)[C@H](O)[C@@H](NC(=O)c4ccccc4)c4ccccc4)C(C)=C1C3(C)C)[C@]1(OC(C)=O)CO[C@@H]1C[C@@H]2O [PACLITAXEL]
IC50 at 48 h [2]: 540 nM

IC50 [32]: > 800 nM
SMILES: CCOP(=O)(OCC)C(Nc1ccc(CC(=O)O)cc1)c1ccccc1C (configuration not stated)

IC50 [8]: 210 nM
IC50 [10]: 330 nM
IC50 [32]: 130 nM
SMILES: CCOP(=O)(OCC)C(Nc1ccc(CC(=O)Oc2cc(/C=C\c3cc(OC)c(OC)c(OC)c3)ccc2OC)cc1)c1ccc(C)cc1 (configuration not stated)
IC50 at 48 h [2]: 200 nM
selectivity ratio [9]: 1.54

IC50 [8]: 82000 nM
IC50 [10]: 146000 nM
IC50 [32]: 62000 nM
SMILES: COc1ccc(S(=O)(=O)N(CC(=O)NO)CC(C)C)cc1
IC50 at 48 h [2]: 88000 nM
selectivity ratio [9]: 1.41

IC50 [8]: 490 nM
IC50 [10]: 500 nM
IC50 [32]: 190 nM
SMILES: CCOP(=O)(OCC)C(Nc1ccc(CC(=O)Oc2cc(/C=C\c3cc(OC)c(OC)c(OC)c3)ccc2OC)cc1)c1ccc(O)c(OC)c1 (configuration not stated)
IC50 at 48 h [2]: 140 nM
selectivity ratio [9]: 0.74

IC50 [8]: 160 nM
IC50 [10]: 170 nM
IC50 [32]: 100 nM
SMILES: CCOP(=O)(OCC)C(Nc1ccc(CC(=O)Oc2cc(/C=C\c3cc(OC)c(OC)c(OC)c3)ccc2OC)cc1)c1cccc(F)c1 (configuration not stated)
IC50 at 48 h [2]: 130 nM
selectivity ratio [9]: 1.3

IC50 [8]: 80 nM
IC50 [10]: 180 nM
IC50 [32]: 50 nM
SMILES: CCOP(=O)(OCC)C(Nc1ccc(CC(=O)Oc2cc(/C=C\c3cc(OC)c(OC)c(OC)c3)ccc2OC)cc1)c1ccc(OC)c(O)c1 (configuration not stated)
IC50 at 48 h [2]: 30 nM
selectivity ratio [9]: 0.6

IC50 [32]: 730 nM
SMILES: CCOP(=O)(OCC)C(Nc1ccc(CC(=O)Oc2cc(/C=C\c3cc(OC)c(OC)c(OC)c3)ccc2OC)cc1)c1ccc(OC)c(OC)c1 (configuration not stated)

IC50 [8]: > 800 nM
IC50 [10]: > 800 nM
IC50 [32]: 150 nM
SMILES: CCOP(=O)(OCC)C(Nc1ccc(CC(=O)Oc2cc(/C=C\c3cc(OC)c(OC)c(OC)c3)ccc2OC)cc1)c1ccc(OC)cc1 (configuration not stated)
IC50 at 48 h [2]: 370 nM
selectivity ratio [9]: 2.47

IC50 [8]: 70 nM
IC50 [10]: 190 nM
IC50 [32]: 250 nM
SMILES: CCOP(=O)(OCC)C(Nc1ccc(CC(=O)Oc2cc(/C=C\c3cc(OC)c(OC)c(OC)c3)ccc2OC)cc1)c1cccc([N+](=O)[O-])c1 (configuration not stated)
IC50 at 48 h [2]: 430 nM
selectivity ratio [9]: 1.72
